Data from patent US12673052B2, “Combinations for the treatment of cancer” (Exelixis, Inc., priority 2020, dated 2026).
Like-named read-outs stand apart in the source and are kept apart here.

How the values were obtained:
[1] = Phase 1 first-in-human Study Compound 1-001 (NCT03845166): plasma pharmacokinetics; assay type: in vivo; settings: for Cmax / AUC(0-t) / Tmax / half-life / Tmax at 28 days / half-life at 28 days: human, plasma, oral; for AUC(0-t): read-out: AUC0-24
Description: The maximum tolerated dose (MTD) and/or recommended dose (RD) of Compound 1 single-agent therapy and ICI combination therapy will be determined in a Dose-Escalation Stage. The preliminary efficacy of Compound 1 as single agent and as ICI combination therapy will be determined in a Cohort-Expansion Stage with tumor-specific expansion cohorts. As of 14 Dec. 2020, dose escalation of Compound 1 as single agent and in combination therapy with atezolizumab was ongoing: 19 subjects were enrolled in single agent cohorts across six dose levels (PIB: 10, 20 mg; Tablet: 20, 40, 80, 140 mg); three subjects were enrolled in combination therapy with atezolizumab at one dose level (Compound 1 40 mg po qd plus atezolizumab 1200 mg IV q3w). As of 14 Dec. […] The majority of reported adverse events (AEs) were of low-grade severity (Grade 1-2) with five subjects having experienced treatment-related Grade 3 events.
As of 14 Dec. 2020, preliminary Compound 1 clinical PK data are available from 17 subjects in the single agent Dose-Escalation Stage of Study Compound 1-001 (n=3 for 10 mg liquid formulation [PIB]; n=4 for 20 mg liquid formulation [PIB]; n=3 for 20 mg tablet; n =4 for 40 mg tablet; n=3 for 80 mg tablet). In addition, PK of Compound 1 was evaluated when given in the combination with atezolizumab. PK data from a total of 3 subjects enrolled in the Combination Cohort 1 (40 mg Compound 1 qd+1200 mg atezolizumab q3w) are available. A summary of all available PK parameters estimated by non-compartmental approach using individual plasma concentration-time data from a single agent Compound 1 is presented in Table 1. Mean (standard deviation [SD]) plasma Compound 1 concentration-time profiles following a single agent PIB or tablet formulation are illustrated in FIG. 8.
• Blood samples to assess the PK of Compound 1 and its potential metabolites will be obtained during the DLT Evaluation Period: • On the date of first dose of study treatment (prior to study treatment administration) at hourly intervals up to 8 hours postdose on W1D1 and W4D7 (Day 28) • Predose on W1D2 • Predose and 2 hours postdose on W2D1, W3D1, and W4D1 • During the Washout Period on W5D1, W5D2, W5D3, and W5D5 (W5D2, W5D3, and W5D5 PK samples are not required for biomarker cohorts.) • Blood samples for PK analysis will be obtained after the DLT Evaluation and Washout Periods • Predose and 2 hours postdose on W6D1, W9D1, and W13D1.

[2] = Single-dose plasma PK, IV and oral (PEG 400:EtOH:RO water); assay type: in vivo, dogs
Experimental: Plasma PK of Compound 1 was characterized in rats and beagle dogs. Toxicokinetic (TK) evaluations of oral Compound 1 were evaluated in repeat-dose studies in rats and dogs. Plasma protein binding was determined in mouse, rat, dog, monkey, and human plasma in vitro. Biotransformation and metabolite profiling of Compound 1 were investigated in vitro using mouse, rat, dog, monkey, and human liver microsomal fractions and hepatocytes and in vivo in rats and dogs. P-glycoprotein (P-gp) and breast cancer resistance protein (BCRP) transporter interaction studies, in vitro experiments evaluating cytochrome P450 (CYP) induction and inhibition by Compound 1, and CYP and glucuronosyltransferase (UGT) substrate specificity studies of Compound 1 were also performed.
The PK and TK of Compound 1 were assessed in rats and dogs after intravenous (IV; only single dose PK) and oral (PO) administration of Compound 1 in formulations prepared in polyethylene glycol 400 (PEG 400): ethanol (EtOH): reverse osmosis water (RO Water) (45:5:50 v/v/v).
Median time to maximum plasma concentration (Tmax) occurred at approximately 2-3 hours in rats and dogs.
The mean plasma t1/2, z values were approximately 9 hours in rats and 4 hours in dogs. Interspecies scaling based on body weight to predict PK parameters in humans could not be performed because dogs (larger species) cleared Compound 1 faster than rats (smaller species). Therefore, the human PK was projected based on one species (rat). […] This apparent clearance value (CL/F) was used to predict steady-state exposure (AUC and average plasma concentration [Cavg]) in humans for the proposed first-in-human (FIH) starting dose for Study Compound 1-001.

[3] = 10 mg PIB, Steady-State (Day 28), mean ± SD
[4] = 20 mg PIB, Steady-State (Day 28), N = 3, mean ± SD
[5] = 20 mg Tablet, Steady-State (Day 28), mean ± SD
[6] = 40 mg Tablet, Steady-State (Day 28), mean ± SD
[7] = 80 mg Tablet, Steady-State (Day 28), mean ± SD
[8] = 10 mg, 10 mg PIB, First Dose (Day 1), mean ± SD
[9] = 10 mg, 10 mg PIB, Steady-State (Day 28), mean ± SD
[10] = 20 mg, 20 mg PIB, First Dose (Day 1), mean ± SD
[11] = 20 mg, 20 mg PIB, Steady-State (Day 28), N = 3, mean ± SD
[12] = 20 mg, 20 mg Tablet, First Dose (Day 1), mean ± SD
[13] = 20 mg, 20 mg Tablet, Steady-State (Day 28), mean ± SD
[14] = 40 mg, 40 mg Tablet, First Dose (Day 1), mean ± SD
[15] = 40 mg, 40 mg Tablet, Steady-State (Day 28), mean ± SD
[16] = 80 mg, 80 mg Tablet, First Dose (Day 1), mean ± SD
[17] = 80 mg, 80 mg Tablet, Steady-State (Day 28), mean ± SD

SMILES: CNC(=O)c1cc2c(Oc3ccc(NC(=O)C4(C(=O)Nc5ccc(F)cc5)CC4)cc3)ccnc2cc1OC [Compound 1, 1-N′-(4-Fluorophenvl)-1-N-[4-[7-methoxy-6-(methylcarbamovl)quinolin-4-yl]oxyphenyl]cyclopropane-1,1-dicarboxamide]
- AR AUC0-24 (accumulation ratio) [1, 3]: 1.92 ± 0.593
- AR Cmax (accumulation ratio) [1, 3]: 2.76 ± 0.609
- AR AUC0-24 (accumulation ratio) [1, 4]: 3.61 ± 4.09
- AR Cmax (accumulation ratio) [1, 4]: 4.09 ± 5.40
- AR AUC0-24 (accumulation ratio) [1, 5]: 1.33 ± 0.136
- AR Cmax (accumulation ratio) [1, 5]: 1.30 ± 0.374
- mean exposure of Compound 1 (Cmax and AUC0-24) in combination with atezolizumab relative to single agent ([1]; 40 mg Compound 1 qd + 1200 mg atezolizumab q3w, steady-state, lower in combination): approximately 2 fold
- AR AUC0-24 (accumulation ratio) [1, 6]: 1.46 ± 0.286
- AR Cmax (accumulation ratio) [1, 6]: 1.27 ± 0.0979
- AR AUC0-24 (accumulation ratio) [1, 7]: 1.88 ± 0.947
- AR Cmax (accumulation ratio) [1, 7]: 1.67 ± 0.636
- accumulation at steady state ([1]; 20-mg tablet): < 2 fold
- increase of mean exposure (AUC0-24) with dose ([1]; PIB 10 mg to 20 mg, Day 1): approximately dose proportionally
- Mean PK exposure (Cmax and AUC0-24) of 20 mg tablet relative to 20 mg PIB ([1]; first dose Day 1, tablet higher): approximately 3.7 fold
- increase of exposure with dose ([1]; first dose, 20 to 80 mg tablets, single agent): approximately dose proportional
- Cmax [1, 8]: 35.7 ± 10.8 ng/mL
- AUC(0-t) [1, 8]: 510 ± 193 ng·h/mL
- Tmax ([1]; 10 mg, 10 mg PIB, First Dose (Day 1), median (min, max), read-out: Tmax): 1 h
- Cmax [1, 9]: 95.2 ± 17.8 ng/mL
- AUC(0-t) [1, 9]: 971 ± 398 ng·h/mL
- half-life ([1]; 10 mg, 10 mg PIB, Steady-State (Day 28), mean ± SD, read-out: t1/2 (terminal phase half-life) (converted)): 19.9 ± 1.3 h
- Tmax at 28 days ([1]; 10 mg, 10 mg PIB, Steady-State (Day 28), median (min, max)): 2 h
- Cmax [1, 10]: 91.9 ± 13.4 ng/mL
- AUC(0-t) [1, 10]: 1000 ± 338 ng·h/mL
- Tmax ([1]; 20 mg, 20 mg PIB, First Dose (Day 1), median (min, max), read-out: Tmax): 2 h
- Cmax [1, 11]: 330 ± 409 ng/mL
- AUC(0-t) [1, 11]: 3270 ± 4010 ng·h/mL
- half-life ([1]; 20 mg, 20 mg PIB, Steady-State (Day 28), N = 3, mean ± SD, read-out: t1/2 (terminal phase half-life) (converted)): 21 ± 5.7 h
- Tmax at 28 days ([1]; 20 mg, 20 mg PIB, Steady-State (Day 28), N = 3, median (min, max)): 2 h
- Cmax [1, 12]: 342 ± 225 ng/mL
- AUC(0-t) [1, 12]: 3680 ± 1550 ng·h/mL
- Tmax ([1]; 20 mg, 20 mg Tablet, First Dose (Day 1), median (min, max), read-out: Tmax): 6 h
- Cmax [1, 13]: 422 ± 241 ng/mL
- AUC(0-t) [1, 13]: 5030 ± 2560 ng·h/mL
- half-life ([1]; 20 mg, 20 mg Tablet, Steady-State (Day 28), mean ± SD, read-out: t1/2 (terminal phase half-life) (converted)): 27.8 ± 4.74 h
- Tmax ([1]; 20 mg, 20 mg Tablet, Steady-State (Day 28), median (min, max), read-out: Tmax): 1 h
- half-life at 28 days ([1]; 20 mg, PIB 10 and 20 mg, steady-state Day 28, read-out: mean terminal half-life (t1/2) (converted)): ~20 h
- Cmax [1, 14]: 521 ± 202 ng/mL
- AUC(0-t) [1, 14]: 6350 ± 1540 ng·h/mL
- Tmax ([1]; 40 mg, 40 mg Tablet, First Dose (Day 1), median (min, max), read-out: Tmax): 5 h
- Cmax [1, 15]: 656 ± 242 ng/mL
- AUC(0-t) [1, 15]: 8190 ± 1560 ng·h/mL
- half-life ([1]; 40 mg, 40 mg Tablet, Steady-State (Day 28), mean ± SD, read-out: t1/2 (terminal phase half-life) (converted)): 24.2 ± 5.01 h
- Tmax ([1]; 40 mg, 40 mg Tablet, Steady-State (Day 28), median (min, max), read-out: Tmax): 3 h
- Cmax [1, 16]: 935 ± 348 ng/mL
- AUC(0-t) [1, 16]: 11000 ± 6290 ng·h/mL
- Tmax ([1]; 80 mg, 80 mg Tablet, First Dose (Day 1), median (min, max), read-out: Tmax): 2 h
- Cmax [1, 17]: 1440 ± 454 ng/mL
- AUC(0-t) [1, 17]: 16900 ± 3120 ng·h/mL
- half-life ([1]; 80 mg, 80 mg Tablet, Steady-State (Day 28), mean ± SD, read-out: t1/2 (terminal phase half-life) (converted)): 19.3 ± 3.35 h
- Tmax ([1]; 80 mg, 80 mg Tablet, Steady-State (Day 28), median (min, max), read-out: Tmax): 3 h
- Tmax ([1]; first dose, tablets 20 to 80 mg, read-out: median Tmax): 2 to 6 h
- half-life ([1]; tablet (as of April 2021), read-out: terminal half-life at steady state): 24 to 28 h
- half-life at 28 days ([1]; tablets, steady-state, read-out: mean t1/2): 19 to 28 h
- exposure (AUC0-24) of 20-mg tablet higher than 20 mg PIB ([1]; steady-state Day 28): approximately 50%
- accumulation in exposure (Cmax and AUC0-24) at steady-state ([1]; tablets, after 28 days of daily dosing): < 2 fold
- mean apparent CL/F ([1]; tablets, steady-state): approximately 5 L/hr
- bioavailability ([2]; beagle, dog, plasma, po, 0.2-0.6 mg/kg, read-out: Oral absolute bioavailability): 47 to 70%
- half-life ([2]; beagle, dog, plasma, after oral administration, read-out: terminal phase half-life (t1/2, z)): 1 to 3 h
- Tmax ([2]; beagle, dog, plasma, single oral dose, read-out: Median time to maximum plasma concentration (Tmax)): 2 to 3 h
- clearance ([2]; beagle, dog, plasma, single-dose IV 0.2-0.6 mg/kg, read-out: mean plasma clearance (CL) (converted)): 6.33 mL/min/kg
- half-life ([2]; beagle, dog, plasma, single-dose IV, read-out: mean plasma t1/2, z (converted)): ~4 h
- Vd ([2]; beagle, dog, plasma, single-dose IV, read-out: mean volume of distribution at steady-state (Vss)): 1.98 L/kg
- plasma clearance in dogs relative to rats ([2]; higher in dogs than in rats): approximately 16 fold
- increase of exposure (Cmax and AUC0-inf) with dose ([2]; single oral doses 0.2-0.6 mg/kg): approximately dose proportionally
